Assay results published in article PMC6684085, “Intragenic antimicrobial peptides (IAPs) from human proteins with potent antimicrobial and anti-inflammatory activity” (PLoS ONE, 2019).
Converted amounts (≈) assume the structure as drawn. “Also recorded” adds a separate entry of the source. Blank lines part the entries; values can stand above or below the compound they belong to. Ends that are not written are not given here.

Key:
[1] = system: mouse BALB/cN macrophage (J774A.1) cell line; format: cell-based; conditions: for Viability of J774A.1 macrophages versus DMEM untreated control: 24 h exposure, peptide at 0.1, 1 and 10 μM, flow cytometry, 20,000 events/sample, p<0.05
Procedure: (§1) Fig 4 a. Cytotoxicity evaluation in the mouse BALB/cN macrophage (J774A.1) cell line after exposure for 24 h at 0.1, 1.0 and 10 μM concentrations. DMEM was used as a negative control. Cells were analyzed by flow cytometry (20,000 events/sample). b. Evaluation of the cell death mechanism mediated by Hs02 in J774A.1 cells after exposure for 24 h at 0.1, 1.0 and 10 μM concentrations using annexin-V FITC (apoptosis marker) and propidium iodide (PI, necrosis marker) staining. Cells were analyzed by flow cytometry (20,000 events/sample). The values are expressed as mean ± SEM. * p<0.05 and **** p<0.0001 versus DMEM untreated control group. # p<0.05 versus apoptosis staining for each respective group.
(§2) The cytotoxicity of Hs IAPs was performed using human red blood cells in strict accordance with relevant guidelines and regulations (Ethical committee–UnB # 1.939.989 as described elsewhere. Cytotoxic effect of IAPs was evaluated by MTT assay and flow cytometry analysis using murine peritoneal macrophages from C57BL/6 mice or a BALB/cN-derived macrophages (J774A.1) cell line. For cell viability assays using MTT, murine peritoneal macrophages from C57BL/6 mice were plated in triplicate wells in 96-well plates at a density of 1.0 × 10^5 cells per well and stimulated or not with different concentrations of Hs IAPs (0.1, 1 and 10 μM) and incubated for 24h. After that, 20μl of a solution of 3-(4,5-Dimethyl-thiazol-2-yl)-2,5-diphenyl-tetrazolium bromide (MTT, Sigma) was added to each well (5 mg/ml of MTT in phosphate buffered saline). The plates were incubated at 37°C for 3 hours and then processed as previously described. Cell death was analysed by annexin V-FITC/PI staining followed by flow cytometry analysis. Mouse BALB/cN macrophage (J774A.1) cell line was acquired from ATCC (number TIB-67) and cultured in Dulbecco’s Modified Eagle’s Medium (DMEM) (Life) supplemented with 10% heat inactivated foetal bovine serum (Life) and 1% antibiotic solution (100 IU/mL penicillin/100 μg/mL streptomycin, Life) at 37°C, 5% CO2, in a humidified atmosphere. […]

[2] = system: mouse BALB/cN macrophage (J774A.1) cell line; test: Annexin-V FITC / propidium iodide staining by flow cytometry; format: cell-based; conditions: 24 h exposure at 0.1, 1.0 and 10 μM; flow cytometry, 20,000 events/sample
Procedure: as §1
The cytotoxicity of Hs IAPs was performed using human red blood cells in strict accordance with relevant guidelines and regulations (Ethical committee–UnB # 1.939.989 as described elsewhere. Cytotoxic effect of IAPs was evaluated by MTT assay and flow cytometry analysis using murine peritoneal macrophages from C57BL/6 mice or a BALB/cN-derived macrophages (J774A.1) cell line. For cell viability assays using MTT, murine peritoneal macrophages from C57BL/6 mice were plated in triplicate wells in 96-well plates at a density of 1.0 × 10^5 cells per well and stimulated or not with different concentrations of Hs IAPs (0.1, 1 and 10 μM) and incubated for 24h. […]

[3] = system: human red blood cells; format: cell-based
Procedure: The cytotoxicity of Hs IAPs was performed using human red blood cells in strict accordance with relevant guidelines and regulations (Ethical committee–UnB # 1.939.989 as described elsewhere. Cytotoxic effect of IAPs was evaluated by MTT assay and flow cytometry analysis using murine peritoneal macrophages from C57BL/6 mice or a BALB/cN-derived macrophages (J774A.1) cell line. For cell viability assays using MTT, murine peritoneal macrophages from C57BL/6 mice were plated in triplicate wells in 96-well plates at a density of 1.0 × 10^5 cells per well and stimulated or not with different concentrations of Hs IAPs (0.1, 1 and 10 μM) and incubated for 24h. After that, 20μl of a solution of 3-(4,5-Dimethyl-thiazol-2-yl)-2,5-diphenyl-tetrazolium bromide (MTT, Sigma) was added to each well (5 mg/ml of MTT in phosphate buffered saline). The plates were incubated at 37°C for 3 hours and then processed as previously described. Cell death was analysed by annexin V-FITC/PI staining followed by flow cytometry analysis. Mouse BALB/cN macrophage (J774A.1) cell line was acquired from ATCC (number TIB-67) and cultured in Dulbecco’s Modified Eagle’s Medium (DMEM) (Life) supplemented with 10% heat inactivated foetal bovine serum (Life) and 1% antibiotic solution (100 IU/mL penicillin/100 μg/mL streptomycin, Life) at 37°C, 5% CO2, in a humidified atmosphere. J774A.1 cells were seeded into 96-well culture plates in DMEM culture medium for 2 h at 37°C and 5% CO2 in a humid atmosphere at a density of 1.0 × 10^5 cells, and stimulated or not with different concentrations of Hs IAPs (0.1, 1 and 10 μM). The plates were incubated for 24 h, washed in PBS, and resuspended in 100 μL of binding buffer (10 mM HEPES/NaOH pH 7.4, 140 mM NaCl, ad 2.5 mM CaCl2). Cells were then treated with 2 μL of annexin-V FITC in Aqueous buffered solution containing BSA and ≤0.09% sodium azide (BD Pharmingen) and 2 μL of propidium iodide (PI, 50 μg/mL) for 15 min in the dark at room temperature. Next, 100 μL binding buffer was added and a total of 20,000 events were collected per sample in flow cytometer (BD LSRFortessa).

[4] = system: murine peritoneal macrophages from C57BL/6 mice; test: LPS-induced TNF-α release by ELISA; format: cell-based, mouse; conditions: macrophages primed with 500 ng/mL LPS for 4 h, then peptide for 24 h, Hs02 at 0.1, 1 and 10 μM, DS01 at 1 and 10 μM
Procedure: Fig 5 TNF-α secretion and lipid droplet biogenesis evaluation. a. Murine peritoneal macrophages from C57BL/6 mice were pre-treated or not with LPS (500 ng/ml) for 4h and then stimulated or not with Hs IAPs (0.1, 1.0 and 10 μM), incubated for 24h and TNF-α levels measured by ELISA b. In parallel, murine peritoneal macrophages from C57BL/6 mice were pre-treated or not with LPS (500 ng/ml) for 4h and then stimulated or not with Hs IAPs (0.1 μM), incubated for 24h and lipid droplets were quantitated by flow cytometry (B). The values are expressed as mean ±SEM. * p<0.05 and **** p<0.0001 versus DMEM control group. […] The digits of 121, 119, 364 and 122 are best readings.
The modulation of pro-inflammatory cytokine TNF-α secretion induced by IAPs was evaluated by ELISA. […] Supernatant TNF-α concentration was detected by ELISA with a R&D Systems (USA) kit. […] Plates were read after adding the stop solution at 450nm using SpectraMax M3spectrophotometer (Molecular Devices).
Supplementary file pone.0220656.s004.tif: S3 Fig TNF-α release in murine macrophages. Murine peritoneal macrophages from C57BL/6 mice were pre-treated or not with LPS (500 ng/ml) for 4h and then stimulated or not with the AMP DS01 (10, and 1 μM), incubated for 24h and TNF-α levels measured by ELISA. The values are expressed as mean ±SEM. * p<0.05 and **** p<0.0001 versus DMEM control group. […]

[5] = system: murine peritoneal macrophages from C57BL/6 mice; test: MTT reduction assay in primary macrophages; format: cell-based, mouse; conditions: 24 h incubation, triplicate wells (S1 Fig)
Procedure: as §2

[6] = system: Staphylococcus epidermidis 12228; test: microbe, parasite or virus in culture; format: cell-based; conditions: ATCC 12228, peptides 0.5 to 256 μM, 100 μL, 96-well, three biological repetitions with 2 technical replicates, mean ± SD
Procedure: (§3) Protocols M7-A10 [46], M27-A3 [47] and M38-A2 [48] from Clinical & Laboratory Standards Institute (CLSI) were used to test the susceptibility of bacteria, yeasts and filamentous fungi to the Hs IAPs. Briefly, Hs IAPs ranging from 0.5 to 256 μM were tested against microorganisms in a final volume of 100μL. Tests were performed in polystyrene flat-bottom 96 wells microplates and each test consisted of three biological repetitions with 2 technical replicates each. The minimum inhibitory concentration (MIC) was defined as the concentration that no cells/hyphae were detected when visualized by optical microscopy. ATCC reference strains: Candida albicans 90028, Staphylococcus aureus 25923, Pseudomonas aeruginosa 27853, Trichophyton rubrum 28189, Staphylococcus epidermidis 12228.

[7] = system: Staphylococcus aureus 25923; test: microbe, parasite or virus in culture; format: cell-based; conditions: ATCC 25923, peptides 0.5 to 256 μM, 100 μL, 96-well, three biological repetitions with 2 technical replicates, mean ± SD
Procedure: as §3

[8] = system: Pseudomonas aeruginosa 27853; test: microbe, parasite or virus in culture; format: cell-based; conditions: ATCC27853, ATCC 27853, peptides 0.5 to 256 μM, 100 μL, 96-well, three biological repetitions with 2 technical replicates, mean ± SD, read-out: Minimum inhibitory concentration (μM ± SD) P. aeruginosa
Procedure: as §3

[9] = system: Candida albicans 90028; test: microbe, parasite or virus in culture; format: cell-based; conditions: ATCC90028, ATCC 90028, peptides 0.5 to 256 μM, 100 μL, 96-well, no cells seen by optical microscopy, three biological repetitions with 2 technical replicates, mean ± SD, read-out: Minimum inhibitory concentration (μM ± SD) C. albicans
Procedure: as §3

Compound: KWAVRIIRKFIKGFIS-NH2 [Hs02]
Viability of J774A.1 macrophages versus DMEM untreated control [1]: did not cause significant (p<0.05) reduction in the viability
Concentration tolerated by the J774A.1 macrophage cell line ([1]; flow cytometry, 24 h, 0.1, 1 and 10 μM tested): ≥ 10 µM
Apoptosis (annexin-V FITC) or necrosis (PI) in J774A.1 cells versus DMEM control [2]: did not present significant apoptosis or necrosis; also recorded: No significant apoptosis or necrosis
Hemolytic activity SC50 [3]: > 128 µM

Compound: GLWSTIKQKGKEAAIAAAKAAGQAALGAL-NH2 [DS01]
Hemolytic activity SC50 [3]: > 128 µM
Peptide concentration that inhibits LPS-induced release of TNF-α [4]: > 10 µM

Compound: LKMLGMLFHNIRNILKTV-NH2 [Hs01]
Hemolytic activity SC50 [3]: > 128 µM

Compound: FLREFHKWIERVVGWLGKVF-NH2 [Hs03]
Concentration that reduced the viability of peritoneal macrophages to 50% [5]: approximately 10 μM
Hemolytic activity SC50 [3]: > 128 µM

Compound: OO [hydrogen peroxide (H2O2), hydrogen peroxide]
Viability of J774A.1 macrophages versus DMEM untreated control [1]: decreased significantly (p<0.05) the cell viability

Compound: CC1(C)S[C@@H]2[C@H](NC(=O)[C@H](N)c3ccccc3)C(=O)N2[C@H]1C(=O)O [Ampicilin]
Minimum inhibitory concentration (μM ± SD) S. epidermidis [6]: 43.10 ± 0.0 µM (≈ 15.1 µg/mL)
Minimum inhibitory concentration (μM ± SD) S. aureus [7]: 5.38 ± 0.0 µM (≈ 1.88 µg/mL)

Compound: GFKDLLKGAAKALVKTVLF-NH2 [Asc-8]
Hemolytic activity SC50 [3]: 32 µM

Compound: LFNNYITAALKLLEKLYKV-NH2 [Hs04]
Concentration that reduced the viability of peritoneal macrophages to 50% [5]: approximately 10 μM
Hemolytic activity SC50 [3]: 64 µM

MIC ([6]; Staphylococcus epidermidis, ATCC12228, read-out: Minimum inhibitory concentration (μM ± SD) S. epidermidis): 0.26 µM (≈ 0.124 µg/mL)
MIC [8]: 0.13 µM (≈ 0.0621 µg/mL)
MIC ([7]; Staphylococcus aureus, ATCC25923, read-out: Minimum inhibitory concentration (μM ± SD) S. aureus): 0.26 µM (≈ 0.124 µg/mL)
Compound: CNC(C)C1CCC(N)C(OC2C(N)CC(N)C(OC3OCC(C)(O)C(NC)C3O)C2O)O1 (centres unmarked) [Gentamicin]

MIC [9]: 0.27 µM (≈ 0.25 µg/mL)
Compound: C[C@@H]1[C@H](O)[C@@H](C)/C=C/C=C/C=C/C=C/C=C/C=C/C=C/[C@H](O[C@@H]2O[C@H](C)[C@@H](O)[C@H](N)[C@@H]2O)C[C@@H]2O[C@](O)(C[C@@H](O)C[C@@H](O)[C@H](O)CC[C@@H](O)C[C@@H](O)CC(=O)O[C@H]1C)C[C@H](O)[C@H]2C(=O)O [Amphotericin b]

MIC [9]: 1.63 µM (≈ 0.499 µg/mL)
Compound: OC(Cn1cncn1)(Cn1cncn1)c1ccc(F)cc1F [Fluconazol]
